This is an account of results in PubChem BioAssay AID624167 (Sanford-Burnham Center for Chemical Genomics, 2012).

The nature of experiment [1]: inhibition of PEG-3 promoter-driven reporter – cell-based, HeLa, luciferase, CREF/GAPDH counter-screen panel, dose response (AID 624167). Particulars: CREF/GAPDH counter-screens; GAPDH; mean of runs. Background: The purpose of a counterscreen is to sort out artefacts and off-target activity.
A further experiment relates to GAPDH. The experiment is described as above. Conditions: CREF/GAPDH counter-screens.
For experiment [2], the target named is PEG-3 (UniProt Q6IN02). The experiment is described as above. Particulars: HeLa PEG-Prom luciferase reporter, overnight, CREF/GAPDH counter-screens, mean of runs. A general note: In a reporter assay the amount or activity of a reporter protein is the signal.
For experiment [3], the system named is PEG-3. Described as above. Conditions: HeLa PEG-Prom luciferase reporter, overnight, CREF/GAPDH counter-screens.
A further experiment concerns Rat fibroblasts (CREF). The description is as above. Conditions: CREF/GAPDH counter-screens.
Where [4] appears, read: run 1, dose range 1, individual replicate IC50 per panel.
The mark [5] stands for this setting: run 2, dose range 1, individual replicate IC50 per panel.

The structures appear in SMILES notation. Active and inactive are the calls of the source.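 How the source made its calls: active means mean IC50 for reducing PEG3 promoter reporter signal at or below a set limit, with IC50 above the limit in both counter screens; inactive means the rest, including counter screen hits.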 A value given as a limit tells only on which side of the number the result lay.

Sequence of PEG-3 (UniProt Q6IN02) (Q6IN02 whole entry, looked up): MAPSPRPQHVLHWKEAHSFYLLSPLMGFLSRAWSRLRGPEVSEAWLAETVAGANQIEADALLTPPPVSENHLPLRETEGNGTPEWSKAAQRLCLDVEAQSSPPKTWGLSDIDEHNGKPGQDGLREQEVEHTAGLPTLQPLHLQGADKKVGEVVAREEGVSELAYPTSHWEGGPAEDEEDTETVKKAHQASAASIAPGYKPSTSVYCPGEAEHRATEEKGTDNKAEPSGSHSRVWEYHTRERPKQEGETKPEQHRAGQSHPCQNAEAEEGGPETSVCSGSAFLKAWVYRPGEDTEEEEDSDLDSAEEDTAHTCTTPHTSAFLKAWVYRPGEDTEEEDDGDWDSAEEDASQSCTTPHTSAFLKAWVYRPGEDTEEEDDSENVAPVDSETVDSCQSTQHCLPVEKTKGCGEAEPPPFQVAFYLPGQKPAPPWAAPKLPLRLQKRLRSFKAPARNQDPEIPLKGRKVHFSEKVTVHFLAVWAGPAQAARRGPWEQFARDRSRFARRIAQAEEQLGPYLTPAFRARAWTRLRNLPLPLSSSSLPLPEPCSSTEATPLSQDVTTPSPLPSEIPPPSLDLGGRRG

Take `CCOc1cccc(/C=N/NC(=S)Nc2cc(S(=O)(=O)N3CCOCC3)ccc2N2CCOCC2)c1O`: the IC50 in experiment [1] is > 100 µM (inactive); in the experiment with GAPDH (setting [4]), above 100 µM; in the experiment with GAPDH (setting [5]), above 100 µM; at PEG-3 [2] it was 17.3 µM; in the experiment on PEG-3 [3] (setting [4]) it was 9.08 µM; in the experiment with PEG-3 [3] (setting [5]) it was 25.5 µM. The results for the IC50 with Rat fibroblasts (CREF) (mean of runs), with Rat fibroblasts (CREF) (setting [4]) and with Rat fibroblasts (CREF) (setting [5]) were 72.8 µM (inactive), above 100 µM and 72.8 µM, respectively.
With `COc1cc(/C=C2\SC(=Nc3ccccc3OC)NC2=O)ccc1O`, the IC50 is > 100 µM (inactive) in experiment [1]; above 100 µM in the experiment on GAPDH (setting [4]); above 100 µM in the experiment with GAPDH (setting [5]); 4.7 µM with PEG-3 [3] (setting [4]); above 100 µM in the experiment with PEG-3 [3] (setting [5]); > 100 µM (inactive) in the experiment with Rat fibroblasts (CREF) (mean of runs). Further, the IC50 in the experiment with Rat fibroblasts (CREF) (setting [4]) and in the experiment on Rat fibroblasts (CREF) (setting [5]) was above 100 µM throughout. Also, at PEG-3 [2], the IC50 result was “inactive”.
For `CN(C)c1ccc(C=c2c3ccccc3n3c2cc(-c2ccccc2)[n+]3C)cc1`, the IC50 is 8.31 µM in experiment [1]; 9.4 µM in the experiment on GAPDH (setting [4]); 7.23 µM in the experiment on GAPDH (setting [5]); 4.3 µM at PEG-3 [2]; 7.06 µM in the experiment on PEG-3 [3] (setting [4]); 1.54 µM with PEG-3 [3] (setting [5]). For the same compound, the IC50 with Rat fibroblasts (CREF) (mean of runs) was 29.4 µM; with Rat fibroblasts (CREF) (setting [4]) it was 27.5 µM; in the experiment with Rat fibroblasts (CREF) (setting [5]) it was 31.3 µM.
`CN(C(=O)COC(=O)/C=C/c1cccc([N+](=O)[O-])c1)C1CCS(=O)(=O)C1` (centres undefined): the IC50 was > 100 µM (inactive) in experiment [1]; above 100 µM in the experiment with GAPDH (setting [4]); above 100 µM with GAPDH (setting [5]); 0.452 µM on PEG-3 [2]; 0.452 µM with PEG-3 [3] (setting [4]); 0.452 µM with PEG-3 [3] (setting [5]). Besides, the IC50 was > 100 µM (inactive) in the experiment on Rat fibroblasts (CREF) (mean of runs), above 100 µM in the experiment with Rat fibroblasts (CREF) (setting [4]) and above 100 µM in the experiment on Rat fibroblasts (CREF) (setting [5]).
As for `O=C(CSC1c2ccccc2-c2ccccc21)N/N=C/c1ccccc1O`, the IC50 in experiment [1] was > 100 µM (inactive); in the experiment on GAPDH (setting [4]), above 100 µM; with GAPDH (setting [5]) it was above 100 µM; with PEG-3 [3] (setting [4]), 3.04 µM; in the experiment with PEG-3 [3] (setting [5]) it was above 100 µM; in the experiment with Rat fibroblasts (CREF) (mean of runs), 69.5 µM (inactive). The IC50 was above 100 µM with Rat fibroblasts (CREF) (setting [4]) and 38.9 µM with Rat fibroblasts (CREF) (setting [5]). On PEG-3 [2], the IC50 entry was “inactive”.
`CCc1ccc(/C=C2\SC(=S)N(CCCC(=O)Nc3cc(C)on3)C2=O)cc1`: the IC50 in experiment [1] is 9.14 µM; in the experiment on GAPDH (setting [4]), 7.4 µM; with GAPDH (setting [5]), 10.9 µM; at PEG-3 [2] it was 3.46 µM; with PEG-3 [3] (setting [4]) it was 3.86 µM; in the experiment with PEG-3 [3] (setting [5]) it was 3.05 µM. In addition, the IC50 is > 100 µM (inactive) with Rat fibroblasts (CREF) (mean of runs), above 100 µM in the experiment on Rat fibroblasts (CREF) (setting [4]) and above 100 µM with Rat fibroblasts (CREF) (setting [5]).
As to `COC(=O)C1C=CC(OC2OC(COC(C)=O)C(OC(C)=O)C(OC(C)=O)C2OC(C)=O)n2c(=O)n(-c3ccccc3)c(=O)n21` (centres undefined), the IC50 in experiment [1] was 18.5 µM; in the experiment on GAPDH (setting [4]), 19.4 µM; in the experiment with GAPDH (setting [5]) it was 17.7 µM; on PEG-3 [2] it was 9.13 µM; in the experiment on PEG-3 [3] (setting [4]), 10.2 µM; in the experiment on PEG-3 [3] (setting [5]), 8.07 µM. Also, the 50% inhibitory concentration (IC50) with Rat fibroblasts (CREF) (mean of runs) is 8.06 µM; with Rat fibroblasts (CREF) (setting [4]), 6.83 µM; in the experiment with Rat fibroblasts (CREF) (setting [5]) it was 9.29 µM.
For `CS(=O)(=O)c1ccc(-c2cn3cc(C(=O)O)ccc3n2)cc1`, the IC50 in experiment [1] is 27.6 µM; in the experiment with GAPDH (setting [4]) it was 24.6 µM; in the experiment on GAPDH (setting [5]) it was 30.5 µM; on PEG-3 [2] it was 10.2 µM; with PEG-3 [3] (setting [4]), 6.91 µM; in the experiment on PEG-3 [3] (setting [5]) it was 13.4 µM. The results for the IC50 in the experiment on Rat fibroblasts (CREF) (mean of runs), in the experiment with Rat fibroblasts (CREF) (setting [4]) and in the experiment on Rat fibroblasts (CREF) (setting [5]) were 42.9 µM, 42.3 µM and 43.4 µM, respectively.
With `Cc1ccccc1CNC(=O)C1CCCN(c2nnc(C)c3c(C)n(-c4ccccc4)nc23)C1` (centres undefined), in experiment [1], the IC50 result was “inactive”. The half-inhibitory concentration (IC50) with GAPDH (setting [4]) is 41.3 µM; in the experiment with GAPDH (setting [5]), 25.2 µM; at PEG-3 [2], 10.4 µM; with PEG-3 [3] (setting [4]), 14.6 µM; in the experiment with PEG-3 [3] (setting [5]), 6.15 µM; in the experiment with Rat fibroblasts (CREF) (mean of runs), 19.8 µM. Also, the values for the IC50 in the experiment on Rat fibroblasts (CREF) (setting [4]) and in the experiment on Rat fibroblasts (CREF) (setting [5]) were 23.9 µM and 15.6 µM, respectively.
Take `C=CCn1c(COc2ccccc2)nnc1SC(C)C(=O)N/N=C/c1cc(Cl)ccc1O` (centres undefined): the IC50 is > 100 µM (inactive) in experiment [1]; above 100 µM in the experiment on GAPDH (setting [4]); above 100 µM in the experiment with GAPDH (setting [5]); 4.26 µM on PEG-3 [2]; 5.09 µM in the experiment on PEG-3 [3] (setting [4]); 3.43 µM in the experiment with PEG-3 [3] (setting [5]). Moreover, the IC50 in the experiment with Rat fibroblasts (CREF) (mean of runs) was > 100 µM (inactive); with Rat fibroblasts (CREF) (setting [4]) it was above 100 µM; in the experiment with Rat fibroblasts (CREF) (setting [5]) it was above 100 µM.
Take `O=C(N/N=C\c1c(O)ccc2ccccc12)c1cncc(Br)c1`: in experiment [1], the IC50 result was “inactive”. For the same compound, the 50% inhibitory concentration (IC50) with GAPDH (setting [4]) was 40.3 µM; with GAPDH (setting [5]), 69.7 µM; on PEG-3 [2] it was 0.512 µM; in the experiment on PEG-3 [3] (setting [4]), 0.52 µM; in the experiment on PEG-3 [3] (setting [5]), 0.504 µM; in the experiment on Rat fibroblasts (CREF) (mean of runs), 9.73 µM. The IC50 with Rat fibroblasts (CREF) (setting [4]) came out at 2.43 µM; in the experiment on Rat fibroblasts (CREF) (setting [5]), 17 µM.

Usually IC50 stands for the point on the concentration scale where inhibition reaches its midpoint.
